Measurements as given in patent US11999964B2, “Synthetic mammalian signaling circuits for robust cell population control” (California Institute of Technology, priority 2020, dated 2024).

Test system: cheaters from the negative feedback condition
Assay: AP1903 killing of cheaters from the negative feedback condition
Format: cell-based, Hamster
Details: 50 nM AP1903, two days, even in the presence of NAA
Description: FIGS. 12A-12C depict non-limiting exemplary data showing the paradoxical circuit allows mutationally robust population control. (FIG. 12A) Cell lines evolved under paradoxical conditions are phenotypically different from cheaters evolved under negative feedback. Each dot represents one culture. Cells evolved under the negative feedback conditions form a tight cluster, which is fitted with a 2-D gaussian to show the 95 percentile (orange dashed ellipse). […] (FIG. 12B) Under paradoxical, but not negative feedback, conditions, mutations that reduce auxin sensing lead to apoptosis in cheaters (red inhibitory arrow), preventing unregulated growth and mutational escape. […] Cells were incubated with different levels of NAA for 6 hours, and then 50 nM of AP1903 was added (except in controls) for another two days. Confluencies were measured and normalized to the no AP1903 control (n=3).

## CC[C@H](C(=O)N1CCCC[C@H]1C(=O)O[C@H](CCc1ccc(OC)c(OC)c1)c1cccc(OCC(=O)NCCNC(=O)COc2cccc([C@@H](CCc3ccc(OC)c(OC)c3)OC(=O)[C@@H]3CCCCN3C(=O)[C@@H](CC)c3cc(OC)c(OC)c(OC)c3)c2)c1)c1cc(OC)c(OC)c(OC)c1 [AP1903]
  Effect of iCasp9 activation by AP1903 on cheaters: kills cheaters
